Tested on: human LECs-CCCs freshly removed from cataract operation
Assay: In situ treatment of LECs attached to capsulorhexis lens capsule (LECs-CCC)
Type: cell-based
Description: The in situ effects of a treatment solution comprising dihydrochlorothiazide (DHCT) (a cotransport interference agent from the group of the thiazide and related diuretics) and hyperosmotic NaCl on human LECs is examined. The treatment is tested on LECs that are still attached to a continuous curvilinear capsulorhexis lens capsule (LECs-CCC) which are freshly removed from a human cataract operation.
The LECs-CCCs are obtained from a cataract operation and immediately put in freshly prepared Eagle's Minimum Essential Medium (MEM) supplemented with 2 mM glutamine, 25 mmol/L Hepes (pH 7.4) without foetal cow serum (FCS) and is transferred to the laboratory for evaluation. Viable LECs are identified by staining the LECs-CCCs for five minutes with 0.2% Trypan Blue. The sheets containing more than 70% viable LECs are used to assess the efficacy of the treatment. […]
In the first step, a hyperosmotic solution of NaCl is prepared by making a stock solution of 2 M NaCl by adding 58.44 g NaCl (supplied by Sigma Chemical Co., U.S.) to 500 ml dH2O. The desired concentration of osmotic NaCl is prepared by diluting the 2M stock solution with dH2O. For example, to make a hyperosmotic solution of 170 mM NaCl, the 2M NaCl stock solution was diluted with dH2O at a ratio of […]. To make a hyperosmotic solution of 200 mM NaCl, the 2M NaCl stock solution is diluted with dH2O at a ratio of 1 to 9. Final osmolarities (mOsm/kg/H2O) are determined by a freezing point depression method using cryoscopic osmometry.
In the second step, DHCT stock solution is made by adding 25 mg DHCT to 1 ml dH2O. […]
The treatment is applied by exposing the LECs-CCCs for five minutes in a small petri dish containing the treatment solution. The treatment solution is removed after five minutes exposure by a syringe and then the fresh PBS is added in the petri dish to wash away the treatment solution. The LECs-CCCs are washed three times. The changes of the LECS are monitored under a microscope. Microscope photographs are taken at 0, 2 and 5 minutes and after wash.

## CCCCNc1cc(C(=O)O)cc(S(N)(=O)=O)c1Oc1ccccc1 [bumetanide]
308 μm bumetanide and hyperosmotic 170 or 200 mM NaCl
  LEC changes after exposure: do not detach, but arrest and die while shrunken
308 μm bumetanide and hyperosmotic NaCl, after washing
  LEC death by trypan blue exclusion: cells died after treatment
